From patent US12479843B2, “Spiro ring-containing quinazoline compounds” (WIGEN BIOMEDICINE TECHNOLOGY (SHANGHAI) CO., LTD., priority 2019, dated 2025)

Key:
pERK level in H358 cells = test: pERK and ERK protein content assay in H358 cells (ELISA); type: cell-based; details: Homo sapiens, NCI-H358, compound 1 μM, 24 h, pERK/ERK ratio compared with DMSO group, read-out: Inhibition rate (%) of pERK level
Outline: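 Percent inhibition of pERK relative to DMSO, from the ELISA pERK/ERK ratio in lysed H358 cells. Compound applied at 1 μM for 24 h after one day of growth.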

H358 cells = test: Antiproliferative activity against H358 cells (Cell Titer Glow, ultra-low attachment plate); type: cell-based; details: Homo sapiens, NCI-H358, 72 h, 96-well ultra-low attachment plate, three days after addition of compound, Cell Titer Glow
Method: 2500 H358 cells were seeded in a 96-well ultra-low attachment plate (corning, 7007). After one day of growth, a serially diluted compound (a maximum concentration of 5 μM, 5-fold dilution, a total of five doses) was added. Three days after the addition of the compound, Cell Titer Glow (Promega, G9681) was added to evaluate pellet growth, and the IC50 value was calculated.

Row | IC50 (H358 cells) [nM] | SMILES | inhibition at 1 µM (pERK level in H358 cells) [%]
1 | < 300 | C=CC(=O)N1CC2(CCN(c3nc(N4CC(N5C[C@@H](F)[C@@H](F)C5)C4)nc4c(OCC(F)(F)F)c(-c5c(C)ccc6[nH]ncc56)c(C5CC5)cc34)CC2)C1 [Compound 267] | > 90
2 | < 300 | C=CC(=O)N1CC2(CCN(c3nc(N4CC(N5CCC(C)CC5)C4)nc4c(OCC(F)(F)F)c(-c5c(C)ccc6[nH]ncc56)c(C5CC5)cc34)CC2)C1 [Compound 268] | > 90
3 | < 300 | C=CC(=O)N1CC2(CCN(c3nc(N4CC(N5CCC(C)(C)CC5)C4)nc4c(OCC(F)(F)F)c(-c5c(C)ccc6[nH]ncc56)c(C5CC5)cc34)CC2)C1 [Compound 269] | > 90
4 | < 300 | C=CC(=O)N1CC2(CCN(c3nc(N4CC5(C4)[C@@H](O)CCN5C)nc4c(OCC(F)(F)F)c(-c5c(C)ccc6[nH]ncc56)c(C5CC5)cc34)CC2)C1 [Compound 271] | > 90
5 | < 300 | C=CC(=O)N1CC2(CCN(c3nc(N4CC5(C4)[C@H](O)CCN5C)nc4c(OCC(F)(F)F)c(-c5c(C)ccc6[nH]ncc56)c(C5CC5)cc34)CC2)C1 [Compound 272] | > 90
6 | < 300 | C=CC(=O)N1CC2(CCN(c3nc(N4CC5(C4)[C@@H](F)CCN5C)nc4c(OCC(F)(F)F)c(-c5c(C)ccc6[nH]ncc56)c(C5CC5)cc34)CC2)C1 [Compound 273] | > 90
7 | < 300 | C=CC(=O)N1CC2(CCN(c3nc(N4CC5(C4)[C@H](F)CCN5C)nc4c(OCC(F)(F)F)c(-c5c(C)ccc6[nH]ncc56)c(C5CC5)cc34)CC2)C1 [Compound 274] | > 90
8 | < 300 | C=CC(=O)N1CC2(CCN(c3nc(N4CC5(C4)[C@@H](OC)CCN5C)nc4c(OCC(F)(F)F)c(-c5c(C)ccc6[nH]ncc56)c(C5CC5)cc34)CC2)C1 [Compound 275] | > 90
9 | < 300 | C=CC(=O)N1CC2(CCN(c3nc(N4CC5(C4)[C@H](OC)CCN5C)nc4c(OCC(F)(F)F)c(-c5c(C)ccc6[nH]ncc56)c(C5CC5)cc34)CC2)C1 [Compound 276] | > 90
10 | < 300 | C=CC(=O)N1CC2(CCN(c3nc(N4CC5(C4)[C@@H](N(C)C)CCN5C)nc4c(OCC(F)(F)F)c(-c5c(C)ccc6[nH]ncc56)c(C5CC5)cc34)CC2)C1 [Compound 277] | > 90
11 | < 300 | C=CC(=O)N1CC2(CCN(c3nc(N4CC5(C4)[C@H](N(C)C)CCN5C)nc4c(OCC(F)(F)F)c(-c5c(C)ccc6[nH]ncc56)c(C5CC5)cc34)CC2)C1 [Compound 278] | > 90
12 | < 300 | C=CC(=O)N1CC2(CCN(c3nc(N4CC5(CCCO5)C4)nc4c(OCC(F)(F)F)c(-c5c(C)ccc6[nH]ncc56)c(C5CC5)cc34)CC2)C1 [Compound 279] | > 90
13 | < 300 | C=CC(=O)N1CC2(CCN(c3nc(N4CC5(C4)OCC[C@@H]5N(C)C)nc4c(OCC(F)(F)F)c(-c5c(C)ccc6[nH]ncc56)c(C5CC5)cc34)CC2)C1 [Compound 280] | > 90
14 | < 300 | C=CC(=O)N1CC2(CCN(c3nc(N4CC5(C4)OCC[C@H]5N(C)C)nc4c(OCC(F)(F)F)c(-c5c(C)ccc6[nH]ncc56)c(C5CC5)cc34)CC2)C1 [Compound 281] | > 90
15 | < 300 | C=CC(=O)N1CC2(CCN(c3nc(N4CC5(CC(O)C5)C4)nc4c(OCC(F)(F)F)c(-c5c(C)ccc6[nH]ncc56)c(C5CC5)cc34)CC2)C1 [Compound 282] | > 90
16 | 300 to 1000 | C=CC(=O)N1CC2(CCN(c3nc(N4CC5(CC(OC)C5)C4)nc4c(OCC(F)(F)F)c(-c5c(C)ccc6[nH]ncc56)c(C5CC5)cc34)CC2)C1 [Compound 283] | 50 to 90
17 | < 300 | C=CC(=O)N1CC2(CCN(c3nc(N4CC5(CC(F)C5)C4)nc4c(OCC(F)(F)F)c(-c5c(C)ccc6[nH]ncc56)c(C5CC5)cc34)CC2)C1 [Compound 284] | > 90
18 | 300 to 1000 | C=CC(=O)N1CC2(CCN(c3nc(N4CC5(CC(C#N)C5)C4)nc4c(OCC(F)(F)F)c(-c5c(C)ccc6[nH]ncc56)c(C5CC5)cc34)CC2)C1 [Compound 285] | 50 to 90
19 | < 300 | C=CC(=O)N1CC2(CCN(c3nc(N4CC5(CC(N(C)C)C5)C4)nc4c(OCC(F)(F)F)c(-c5c(C)ccc6[nH]ncc56)c(C5CC5)cc34)CC2)C1 [Compound 286] | > 90
20 | < 300 | C=CC(=O)N1CC2(CCN(c3nc(N4CC5(CC(N6CCC6)C5)C4)nc4c(OCC(F)(F)F)c(-c5c(C)ccc6[nH]ncc56)c(C5CC5)cc34)CC2)C1 [Compound 287] | > 90
21 | < 300 | C=CC(=O)N1CC2(CCN(c3nc(N4CC5(CC(N6CC(C)C6)C5)C4)nc4c(OCC(F)(F)F)c(-c5c(C)ccc6[nH]ncc56)c(C5CC5)cc34)CC2)C1 [Compound 288] | > 90
22 | < 300 | C=CC(=O)N1CC2(CCN(c3nc(N4CC5(CC(N6CCCC6)C5)C4)nc4c(OCC(F)(F)F)c(-c5c(C)ccc6[nH]ncc56)c(C5CC5)cc34)CC2)C1 [Compound 289] | > 90
23 | < 300 | C=CC(=O)N1CC2(CCN(c3nc(N4CC5(CC(N6CCC[C@@H]6C)C5)C4)nc4c(OCC(F)(F)F)c(-c5c(C)ccc6[nH]ncc56)c(C5CC5)cc34)CC2)C1 [Compound 290] | > 90
24 | < 300 | C=CC(=O)N1CC2(CCN(c3nc(N4CC5(CC(N6CCC[C@H]6C)C5)C4)nc4c(OCC(F)(F)F)c(-c5c(C)ccc6[nH]ncc56)c(C5CC5)cc34)CC2)C1 [Compound 291] | > 90
25 | < 300 | C=CC(=O)N1CC2(CCN(c3nc(N4CC5(CC(N6CCC(C)C6)C5)C4)nc4c(OCC(F)(F)F)c(-c5c(C)ccc6[nH]ncc56)c(C5CC5)cc34)CC2)C1 (centres unmarked) [Compound 292] | > 90
26 | < 300 | C=CC(=O)N1CC2(CCN(c3nc(N4CC5(CC(N6CC[C@@H](C)C6)C5)C4)nc4c(OCC(F)(F)F)c(-c5c(C)ccc6[nH]ncc56)c(C5CC5)cc34)CC2)C1 [Compound 293] | > 90
27 | < 300 | C=CC(=O)N1CC2(CCN(c3nc(N4CC[C@H](N5CC(C)C5)C4)nc4c(OCC(F)(F)F)c(-c5c(C)ccc6[nH]ncc56)c(C5CC5)cc34)CC2)C1 [Compound 296] | > 90
28 | < 300 | C=CC(=O)N1CC2(CCN(c3nc(N4CC[C@@H](N5CC(C)C5)C4)nc4c(OCC(F)(F)F)c(-c5c(C)ccc6[nH]ncc56)c(C5CC5)cc34)CC2)C1 [Compound 297] | > 90
29 | < 300 | C=CC(=O)N1CC2(CCN(c3nc(N4CC[C@H](N5CCC(C)C5)C4)nc4c(OCC(F)(F)F)c(-c5c(C)ccc6[nH]ncc56)c(C5CC5)cc34)CC2)C1 (some centres unmarked) [Compound 298] | > 90
30 | < 300 | C=CC(=O)N1CC2(CCN(c3nc(N4CC[C@H](N5CC[C@@H](C)C5)C4)nc4c(OCC(F)(F)F)c(-c5c(C)ccc6[nH]ncc56)c(C5CC5)cc34)CC2)C1 [Compound 300] | > 90

Row | SMILES | IC50 (H358 cells) [nM] | inhibition at 1 µM (pERK level in H358 cells) [%]
31 | C=CC(=O)N1CC2(CCN(c3nc(N4CC(N5C6CCC5CC6)C4)nc4c(OCC(F)(F)F)c(-c5c(C)ccc6[nH]ncc56)c(C5CC5)cc34)CC2)C1 [Compound 270] | < 300 | > 90
